Experimental data: ChEMBL document CHEMBL1201862, “PubChem BioAssay data set” (2004)
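1) Cells in 96-well plates. 2) Compound, 48 h, 5 concentrations. 3) Linear interpolation between surrounding doses. 4) Unreached endpoint = highest concentration. At the GI50, growth is halved.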 The source made the active and inactive calls. Cut-off read from the data, not from the text of the source: active = GI50 up to about 1.1 µM and inactive = higher.

Assays:
Experiment in all cases: NCI tumour cell line growth inhibition, 48 h
HOP-62 = test system: HOP-62
NCI-H23 = test system: NCI-H23
SNB-75 = test system: SNB-75
HCT-116 = test system: HCT-116
SN12C = test system: SN12C
SK-MEL-28 = test system: SK-MEL-28
MDA-MB-231 = test system: MDA-MB-231
NCI/ADR-RES = test system: NCI/ADR-RES
MDA-MB-435 = test system: MDA-MB-435
RXF 393 = test system: RXF 393
ACHN = test system: ACHN
UO-31 = test system: UO-31
BT-549 = test system: BT-549
NCI-H226 = test system: NCI-H226
786-0 = test system: 786-0
OVCAR-4 = test system: OVCAR-4
SK-MEL-5 = test system: SK-MEL-5
OVCAR-5 = test system: OVCAR-5
SW-620 = test system: SW-620
EKVX = test system: EKVX
Hs-578T = test system: Hs-578T
PC-3 = test system: PC-3
HOP-92 = test system: HOP-92
KM12 = test system: KM12
SNB-19 = test system: SNB-19
U-251 = test system: U-251
SF-295 = test system: SF-295
IGROV-1 = test system: IGROV-1
TK-10 = test system: TK-10
OVCAR-3 = test system: OVCAR-3
SK-MEL-2 = test system: SK-MEL-2
M14 = test system: M14
A549 = test system: A549
Malme-3M = test system: Malme-3M
UACC-62 = test system: UACC-62
LOX IMVI = test system: LOX IMVI
SR = test system: SR
NCI-H460 = test system: NCI-H460
DU-145 = test system: DU-145
UACC-257 = test system: UACC-257
HCT-15 = test system: HCT-15
MDA-N = test system: MDA-N
K562 = test system: K562
T47D = test system: T47D
CAKI-1 = test system: CAKI-1
SF-268 = test system: SF-268
HCC 2998 = test system: HCC 2998
MOLT-4 = test system: MOLT-4
A498 = test system: A498
HT-29 = test system: HT-29
NCI-H522 = test system: NCI-H522

For `N=C(CC/C(N)=N/O)NO`, the GI50 (HOP-62) was > 100 µM (inactive), the GI50 (NCI-H23) was > 100 µM (inactive) and the GI50 (SNB-75) was > 100 µM (inactive). For the same compound, the GI50 (HCT-116) was > 100 µM (inactive), the GI50 (SN12C) was > 100 µM (inactive) and the GI50 (SK-MEL-28) was > 100 µM (inactive). The GI50 (MDA-MB-231) was > 100 µM (inactive), the GI50 (NCI/ADR-RES) was > 100 µM (inactive) and the GI50 (MDA-MB-435) was > 100 µM (inactive). For the same compound, the GI50 (RXF 393) was > 100 µM (inactive), the GI50 (ACHN) was > 100 µM (inactive) and the GI50 (UO-31) was > 100 µM (inactive). For the same compound, the GI50 (BT-549) was > 100 µM (inactive), the GI50 (NCI-H226) was > 100 µM (inactive) and the GI50 (786-0) was > 100 µM (inactive). The GI50 (OVCAR-4) was > 100 µM (inactive), the GI50 (SK-MEL-5) was > 100 µM (inactive) and the GI50 (OVCAR-5) was > 100 µM (inactive). For the same compound, the GI50 (SW-620) was > 100 µM (inactive), the GI50 (EKVX) was > 100 µM (inactive) and the GI50 (Hs-578T) was > 100 µM (inactive). For the same compound, the GI50 (PC-3) was > 100 µM (inactive), the GI50 (HOP-92) was > 100 µM (inactive) and the GI50 (KM12) was > 100 µM (inactive). For the same compound, the GI50 (SNB-19) was > 100 µM (inactive), the GI50 (U-251) was > 100 µM (inactive) and the GI50 (SF-295) was > 100 µM (inactive). For the same compound, the GI50 (IGROV-1) was > 100 µM (inactive), the GI50 (TK-10) was > 100 µM (inactive) and the GI50 (OVCAR-3) was > 100 µM (inactive). For the same compound, the GI50 (SK-MEL-2) was > 100 µM (inactive), the GI50 (M14) was 38.7 µM (inactive) and the GI50 (A549) was > 100 µM (inactive). For the same compound, the GI50 (Malme-3M) was > 100 µM (inactive), the GI50 (UACC-62) was > 100 µM (inactive) and the GI50 (LOX IMVI) was > 100 µM (inactive). The GI50 (SR) was > 100 µM (inactive), the GI50 (NCI-H460) was > 100 µM (inactive) and the GI50 (DU-145) was > 100 µM (inactive). The GI50 (UACC-257) was > 100 µM (inactive), the GI50 (HCT-15) was over 100 µM and the GI50 (MDA-N) was > 100 µM (inactive). For the same compound, the GI50 (K562) was > 100 µM (inactive), the GI50 (T47D) was > 100 µM (inactive) and the GI50 (CAKI-1) was > 100 µM (inactive). The GI50 (SF-268) was > 100 µM (inactive), the GI50 (HCC 2998) was > 100 µM (inactive) and the GI50 (MOLT-4) was > 100 µM (inactive). The GI50 (A498) was > 100 µM (inactive), the GI50 (HT-29) was > 100 µM (inactive) and the GI50 (NCI-H522) was > 100 µM (inactive).
